B1: G-CSF: positive control, CJ Pharma Leukokine Inj. 150; known EPC mobilization factor (protein, UniProt P09919 31-207, looked up)
Granulocyte …: TPLGPASSLPQSFLLKCLEQVRKIQGDGAALQEKLVSECATYKLCHPEELVLLGHSLGIPWAPLSSCPSQALQLAGCLSQLHSGLFLYQGLLQALEGISPELGPTLDTLQLDVADFATTIWQQMEELGMAPALQPTQGAMPAFASAFQRRAGGVLVASHLQSFLEVSYRVLRHLAQP

Assays:
[1] = system: inflammatory cells (neutrophils, eosinophils and monocytes); experiment: Complete blood cell count of peripheral blood after intra-bone marrow administration; type: in vivo, New Zealand white rabbits; settings: rabbit, intra-bone marrow administration, 1, 2 and 3 days
[2] = system: EPCs; experiment: Immunohistochemical staining of cells cultured from peripheral blood with EPC markers CD34 and UEA; type: cell-based, New Zealand white rabbits; settings: cells cultured from peripheral blood after intravenous SP, fluorescence microscopy
Procedure: In order to examine the presence of EPCs in peripheral blood using the EPC markers CD34 and UEA, EPCs (2×10^4 cells/well) that have been isolated and cultured from the above blood were incubated on cover slips for CD34 test and UEA test, respectively. After incubation in a 5% CO2 incubator at 37° C. for 24 hours, the cells were washed with PBS. Then, the cells were fixed with 3.7% paraformaldehyde and washed again with PBS.
The washed cells were blocked with 20% goat serum and treated with anti-CD 34 antibody at room temperature for 1 hour. Then, the cells were washed again with PBS and treated with FITC-conjugated anti-mouse IgG at room temperature for 1 hour. To remove excess of antibodies, the cells were washed with PBS, counterstained with DAPI, and then mounted.
The washed cells were blocked with 20% goat serum and treated with UEA-biotin at room temperature for 1 hour. Then, the cells were washed again with PBS and treated with streptavidin-FITC at room temperature for 1 hour. The cells were washed with PBS, counterstained with DAPI, and then mounted.
For negative control in immune fluorescence staining, cultured cells were treated with only secondary antibody, and the expression thereof was observed (FIG. 2C).

[3] = system: endothelial progenitor cells; experiment: EPC CFU in bone marrow aspirate after intra-bone marrow administration; type: in vivo, New Zealand white rabbits; settings: rabbit, intra-bone marrow injection, bone marrow aspirate 24 hours after injection, 1 week culture; for increase in amount of mobilized EPCs (CFU) compared to negative control group: SP 4 nmole/kg, G-CSF 2.5 μg/kg
Procedure: (§1) Ketamine hydrochloride (50 mg/ml Yuhan, Korea) and Rompun (xylazine hydrochloride, 23.32 mg/ml Bayer Korea) were mixed at a ratio of 2:1, and then 900 μl of the mixture (600 μl of ketamine hydrochloride and 300 μl of Rompun) was injected intramuscularly into New Zealand white rabbits (male, 2.5 kg, n=4). 5 minutes after the intramuscular injection, the same anesthetic (200 μl of ketamine hydrochloride and 100 μl of Rompun) was injected intravenously into the ear of each rabbit to completely anesthetize the rabbits.
SP (Sigma, 4 nmole/kg in saline) was injected into the right iliac crest of one rabbit group at an injection volume of 0.1 ml using a 18G spinal needle.
As a negative control, 1×PBS was injected into the left iliac crest of another rabbit group at an injection volume of 0.1 ml using a 18G spinal needle. As a positive control, G-CSF (CJ Pharma Leukokine Inj. 150; 2.5 μg/kg) was injected into the right iliac crest at an injection volume of 0.1 ml using a 18G spinal needle.
24 hours after the injection, 4 ml of a bone marrow aspirate was isolated from the bone marrow, two-fold diluted in PBS, and then carefully placed on Ficoll (GE Health care) contained in a tube (Ficoll: bone marrow aspirate=1:1 v/v). Then, the cell dilution was centrifuged at 2200 rpm for 25 minutes. As a result, a red blood cell layer, a ficoll layer, a mononuclear cell layer and a plasma layer, from bottom to top, were formed. After removing the plasma layer, only the mononuclear cell layer was separated and transferred into a new tube. 30 ml of PBS was added to the obtained mononuclear cell layer and centrifuged again (washing step).
The isolated cells were seeded on a 100-mm dish (Falcon) coated with fibronectin and were cultured in EGM-2 (Endothelial growth medium-2, Lonza) for 1 week (5% CO2 and 37° C.). After the culture, the CFU of the cells was measured and compared with those of the group injected with PBS and the group injected with the positive control G-CSF.

[4] = system: endothelial progenitor cells; experiment: Comparison of EPC colony formation in peripheral blood after intravenous administration of SP and G-CSF; type: in vivo, New Zealand white rabbits; settings: rabbit
Procedure: (§2) According to the same method described in Example 1-(1), 0.1 ml of SP was administered to one rabbit group (New Zealand white rabbits, male, 2.5 kg, n=3), and 0.1 ml of G-CSF (CJ Pharma, Leukokine inj. 150; 2.5 μg/kg) as a positive control was administered to another rabbit group (New Zealand white rabbits, male, 2.5 kg, n=3). 1, 2 and 3 days after the administration, 5-15 ml of peripheral blood was isolated from each animal group. The isolated blood was two-fold diluted in PBS and carefully placed on Ficoll contained in a tube (Ficoll: peripheral blood=1:1 v/v). Then, the cell dilution was centrifuged at 2200 rpm for 25 minutes. The uppermost plasma layer was removed, and only the mononuclear cell layer was separated from the tube and transferred into a new tube. 30 ml of PBS was added to the obtained mononuclear cell layer and centrifuged at 1500 rpm for 5 minutes (washing step). The cells were suspended in EGM-2 (endothelial growth medium-2, Lonza), and the suspended cells were seeded on a 100-mm dish (Falcon) coated with fibronectin and were cultured in EGM-2 (endothelial growth medium-2, Lonza) for 2 weeks (5% CO2 and 37° C.). After the culture, the produced colonies were stained with toluidine blue and counted.

[5] = system: EPCs; experiment: Ability to form tubes in vitro on Matrigel of EPCs cultured from blood after SP; type: cell-based, New Zealand white rabbits; settings: EPCs from peripheral blood after intravenous SP, 12 hours
Procedure: In order to examine the blood vessel-forming ability of the EPCs that have been isolated and cultured from the blood, the cells were cultured on Matrigel (BD). For this purpose, 200 μl of Matrigel was added to each well of a 96-well plate and incubated at 37° C. for 30 minutes. The cells were added to each well containing Matrigel at a density of 2×10^4 and cultured for 12 hours. When mesenchymal stem cells (MSCs) were cultured in the same manner as described above, colonies were formed as shown in FIG. 4B.

[6] = system: endothelial progenitor cells; experiment: EPC mobilization to peripheral blood after intravenous administration (EPC colony count); type: in vivo, New Zealand white rabbits; settings: rabbit, 5 nmole/kg i.v. twice (0 and 24 h), blood 3 days after first injection, 2 weeks culture, vs PBS control
Procedure: as §1, with “n=3). 10” for “n=4). 5”, “ear vein” for “ear”, “rabbits. Then, 5 nmole/kg of SP was dissolved in physiological saline solution, and 1 ml of the solution was administered slowly into the ear vein of one rabbit group. As a control, 1 ml of 1×PBS was administered into the ear vein of another rabbit group. 24 hours after the administration, the same amount of each of SP and 1×PBS was injected once more.” for “rabbits.”
3 days after the first injection, peripheral blood was collected from the ear blood vessels of the rabbits, and 10 ml of the collected blood was two-fold diluted in PBS, and then carefully placed on Ficoll contained in a tube (Ficoll: peripheral blood=1:1 v/v). Next, the blood dilution was centrifuged at 2200 rpm for 25 minutes. As a result, a red blood cell (RBC) layer, a ficoll layer, a mononuclear cell layer and a plasma layer, from bottom to top, were formed. […]

[7] = system: endothelial progenitor cells; experiment: Comparison of EPC colony formation in peripheral blood after intra-bone marrow administration of SP and G-CSF; type: in vivo, New Zealand white rabbits; settings: rabbit, intra-bone marrow administration, 1, 2 and 3 days, compared to G-CSF
Procedure: as §2, with “2-(2),” for “1-(1),”

[8] = system: inflammatory cells (neutrophils and monocytes); experiment: Complete blood cell count of peripheral blood after intravenous administration; type: in vivo, New Zealand white rabbits; settings: rabbit, intravenous administration, 1, 2 and 3 days, vs PBS control
Procedure: 1 ml of each of the peripheral bloods obtained 1, 2 and 3 days after intravenous administration of SP and G-CSF was placed in an EDTA-containing vial and mixed well to prevent clotting. In the experiment for isolating EPCs from blood cells, the complete blood cell counting of each blood was performed by Royal ARC (Korea) under the same conditions for each blood.

Molecule | inflammatory cells (neutrophils, eosinophils and monocytes) in peripheral blood [1] | presence of EPCs in peripheral blood by EPC markers CD34 and UEA [2] | increase in amount of mobilized EPCs (CFU) compared to group administered with positive control G-CSF [3] | increase in amount of mobilized EPCs (CFU) compared to negative control group [3] | amount of EPCs in peripheral blood over 1, 2 and 3 days ([4]; days 1-3) | ability to form tubes in vitro [5] | amount of EPCs in peripheral blood (colonies) [6] | effect of stimulating EPC mobilization (EPC colonies in peripheral blood) [7] | EPCs in peripheral blood after the second day ([4]; after the second day) | EPCs in peripheral blood at the first day ([4]; day 1) | inflammatory cells (neutrophils and monocytes) in peripheral blood [8]
Substance-P [SP] | without causing side effects such as inflammation | contained a large amount of EPCs | about 3 fold | 10-12 fold | continuously increased | had the ability to form blood vessels | significantly increased | excellent effect of stimulating EPC mobilization compared to G-CSF | – | – | –
B1 | significantly increased | – | – | about 4 fold | – | – | – | – | no EPCs were found | temporarily increased | significantly increased
